Active and inactive are the calls of the source. The calls are words filed in the database; no cut-off is given here.
Assays:
[1] = tested on: Macrophage cell line; experiment: Effect on lipid mediator formation in human M2-like phenotype MDM cells by measuring DHA formation at 10 uM pre-incubated for 15 mins followed by SACM stimulation and measured after 90 mins by UPLC-MS/MS analysis (reference value: 50400 +/- 3051 pg/ml); type: functional; settings: time 105 min, 1.75 h
[2] = target: T1, Polyunsaturated fatty acid 5-lipoxygenase (Homo sapiens, UniProt P09917); experiment: Inhibition of 5-LOX in human Neutrophil preincubated with compound for 15 mins followed by A23187 addition measured after 10 mins by RP-HPLC analysis; type: cell-based
T1 sequence (P09917 whole entry): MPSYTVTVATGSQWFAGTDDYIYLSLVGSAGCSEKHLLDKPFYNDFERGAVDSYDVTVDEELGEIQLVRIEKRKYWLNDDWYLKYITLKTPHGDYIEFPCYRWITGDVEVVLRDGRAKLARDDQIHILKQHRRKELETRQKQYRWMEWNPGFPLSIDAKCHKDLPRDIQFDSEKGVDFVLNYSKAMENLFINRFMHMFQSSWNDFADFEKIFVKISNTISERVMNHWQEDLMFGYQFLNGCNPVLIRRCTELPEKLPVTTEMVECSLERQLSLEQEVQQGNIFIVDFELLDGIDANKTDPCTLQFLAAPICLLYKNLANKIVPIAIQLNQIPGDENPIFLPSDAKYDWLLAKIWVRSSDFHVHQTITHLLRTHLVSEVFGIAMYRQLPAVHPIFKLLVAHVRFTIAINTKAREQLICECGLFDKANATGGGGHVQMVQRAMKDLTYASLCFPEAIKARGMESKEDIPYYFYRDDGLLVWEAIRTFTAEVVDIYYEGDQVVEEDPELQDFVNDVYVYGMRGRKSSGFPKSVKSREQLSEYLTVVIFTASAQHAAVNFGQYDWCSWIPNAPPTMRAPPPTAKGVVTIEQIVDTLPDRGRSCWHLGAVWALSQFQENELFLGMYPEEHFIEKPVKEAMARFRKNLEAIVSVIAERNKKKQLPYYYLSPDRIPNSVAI

[3] = tested on: Macrophage cell line; experiment: Effect on lipid mediator formation in human M2-like phenotype MDM cells by measuring 15-HETE formation at 10 uM pre-incubated for 15 mins followed by SACM stimulation and measured after 90 mins by UPLC-MS/MS analysis relative to control; type: functional; settings: time 105 min, 1.75 h
[4] = tested on: Macrophage cell line; experiment: Effect on lipid mediator formation in human M1-like phenotype MDM cells by measuring arachidonic acid formation at 10 uM pre-incubated for 15 mins followed by SACM stimulation and measured after 90 mins by UPLC-MS/MS analysis (reference value: 69242 +/- 58 pg/ml); type: functional; settings: time 105 min, 1.75 h
[5] = target: T2, Prostaglandin E synthase (Homo sapiens) (UniProt O14684); experiment: Inhibition of human mPGES-1 at 10 uM relative to control
T2 sequence (whole entry): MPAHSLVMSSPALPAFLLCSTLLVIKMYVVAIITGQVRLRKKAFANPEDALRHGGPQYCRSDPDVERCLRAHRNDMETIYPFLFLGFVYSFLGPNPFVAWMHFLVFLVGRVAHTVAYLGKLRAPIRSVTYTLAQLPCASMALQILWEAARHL

[6] = tested on: Macrophage cell line; experiment: Effect on lipid mediator formation in human M2-like phenotype MDM cells by measuring LTB4 formation at 10 uM pre-incubated for 15 mins followed by SACM stimulation and measured after 90 mins by UPLC-MS/MS analysis relative to control; type: functional; settings: time 105 min, 1.75 h
[7] = tested on: Neutrophil; experiment: Inhibition of ROS production in PMA-induced human Neutrophil cells at 10 uM incubated for 10 mins by DCFH-DA dye based fluorometric assay; type: functional, cell-based
[8] = tested on: Macrophage cell line; experiment: Effect on lipid mediator formation in human M2-like phenotype MDM cells by measuring 15-HETE formation at 10 uM pre-incubated for 15 mins followed by SACM stimulation and measured after 90 mins by UPLC-MS/MS analysis (reference value: 18426 +/- 5001 pg/ml); type: functional; settings: time 105 min, 1.75 h
[9] = tested on: Macrophage cell line; experiment: Effect on lipid mediator formation in human M2-like phenotype MDM cells by measuring RvD2 formation at 10 uM pre-incubated for 15 mins followed by SACM stimulation and measured after 90 mins by UPLC-MS/MS analysis relative to control; type: functional; settings: time 105 min, 1.75 h
[10] = tested on: Macrophage cell line; experiment: Effect on lipid mediator formation in human M1-like phenotype MDM cells by measuring 4-HDHA formation at 10 uM pre-incubated for 15 mins followed by SACM stimulation and measured after 90 mins by UPLC-MS/MS analysis relative to control; type: functional; settings: time 105 min, 1.75 h
[11] = tested on: Macrophage cell line; experiment: Effect on lipid mediator formation in human M1-like phenotype MDM cells by measuring t-LTB4 formation at 10 uM pre-incubated for 15 mins followed by SACM stimulation and measured after 90 mins by UPLC-MS/MS analysis (reference value: 338 +/- 102 pg/ml); type: functional; settings: time 105 min, 1.75 h
[12] = tested on: Macrophage cell line; experiment: Effect on lipid mediator formation in human M2-like phenotype MDM cells by measuring RvD5 formation at 10 uM pre-incubated for 15 mins followed by SACM stimulation and measured after 90 mins by UPLC-MS/MS analysis (reference value: 344 +/- 92 pg/ml); type: functional; settings: time 105 min, 1.75 h
[13] = target: T2, Prostaglandin E synthase (Homo sapiens); experiment: Inhibition of human mPGES-1 assessed as enzyme remaining activity at 10 uM relative to control
[14] = tested on: Macrophage cell line; experiment: Effect on lipid mediator formation in human M2-like phenotype MDM cells by measuring PGE2 formation at 10 uM pre-incubated for 15 mins followed by SACM stimulation and measured after 90 mins by UPLC-MS/MS analysis relative to control; type: functional; settings: time 105 min, 1.75 h
[15] = tested on: Macrophage cell line; experiment: Effect on lipid mediator formation in human M1-like phenotype MDM cells by measuring 12-HEPE formation at 10 uM pre-incubated for 15 mins followed by SACM stimulation and measured after 90 mins by UPLC-MS/MS analysis (reference value: 40 +/- 9 pg/ml); type: functional; settings: time 105 min, 1.75 h
[16] = Antioxidant activity assessed as DPPH radical scavenging activity at 1 uM incubated for 30 min by DPPH assay; type: functional
[17] = target: T1, Polyunsaturated fatty acid 5-lipoxygenase; experiment: Inhibition of 5-LOX in human Neutrophil using arachidonic acid as substrate preincubated with compound for 15 mins followed by substrate and A23187 addition measured after 10 mins by RP-HPLC analysis; type: cell-based
[18] = tested on: Macrophage cell line; experiment: Effect on lipid mediator formation in human M2-like phenotype MDM cells by measuring 17-HDHA formation at 10 uM pre-incubated for 15 mins followed by SACM stimulation and measured after 90 mins by UPLC-MS/MS analysis relative to control; type: functional; settings: time 105 min, 1.75 h
[19] = tested on: Macrophage cell line; experiment: Effect on lipid mediator formation in human M2-like phenotype MDM cells by measuring 5S,6R-diHETE formation at 10 uM pre-incubated for 15 mins followed by SACM stimulation and measured after 90 mins by UPLC-MS/MS analysis relative to control; type: functional; settings: time 105 min, 1.75 h
[20] = tested on: Macrophage cell line; experiment: Effect on lipid mediator formation in human M2-like phenotype MDM cells by measuring PGD2 formation at 10 uM pre-incubated for 15 mins followed by SACM stimulation and measured after 90 mins by UPLC-MS/MS analysis (reference value: 48 +/- 13 pg/ml); type: functional; settings: time 105 min, 1.75 h
[21] = tested on: Macrophage cell line; experiment: Effect on lipid mediator formation in human M2-like phenotype MDM cells by measuring 5,15-diHETE formation at 10 uM pre-incubated for 15 mins followed by SACM stimulation and measured after 90 mins by UPLC-MS/MS analysis (reference value: 1231 +/- 356 pg/ml); type: functional; settings: time 105 min, 1.75 h

Compound COc1ccc(C2=C/C(=C/c3ccc(O)cc3O)C(=O)O2)cc1 has an Activity [1] of 53610 pg/mL, an IC50 [2] of 4.8 µM and an Activity [3] of 136%. For the same compound, the Activity [4] was 80565 pg/mL, the inhibition [5] was “inactive” and the Activity [6] was 4%. The inhibition [7] was “inactive”, the Activity [8] was 25017 pg/mL and the Activity [9] was 112%. The Activity [10] was 80%, the Activity [11] was 28 pg/mL and the Activity [12] was 575 pg/mL. The Activity [13] was 89.3%, the Activity [14] was 259% and the Activity [15] was 37 pg/mL. For the same compound, the Activity [16] was “inactive”, the IC50 [17] was 0.9 µM and the Activity [18] was 173%. It also gave an Activity [19] of 4%, an Activity [20] of 96 pg/mL and an Activity [21] of 479 pg/mL.
Work on Oc1ccc(CCC2CCC(c3ccc(O)cc3)CO2)cc1 (configuration not stated) yielded an Activity [1] of 53713 pg/mL, an IC50 [2] of 1.1 µM and an Activity [3] of 144%. For the same compound, the Activity [4] was 74786 pg/mL, the inhibition [5] was “inactive” and the Activity [6] was 14%. For the same compound, the inhibition [7] was “inactive”, the Activity [8] was 26605 pg/mL and the Activity [9] was 96%. It also gave an Activity [10] of 75%, an Activity [11] of 29 pg/mL and an Activity [12] of 361 pg/mL. The Activity [13] was 80.3%, the Activity [14] was 147% and the Activity [15] was 36 pg/mL. The Activity [16] was “inactive”, the IC50 [17] was 2.1 µM and the Activity [18] was 149%. It also gave an Activity [19] of 7%, an Activity [20] of 62 pg/mL and an Activity [21] of 751 pg/mL.
